Assay results taken from patent EP0489933A1, “BILE ALCOHOL AND DRUG CONTAINING THE SAME AS ACTIVE INGREDIENT” (TSUMURA CO., LTD., priority 1990, dated 1992).

Tests used:
male mice of ddY line [1] = assay type: in vivo; settings: 50 mg/kg, i.p., 60 minutes before KCN (3.0 mg/kg) tail intravenous injection; for Survival Time ±S.E.: time to respiratory arrest
male mice of ddY line [2] = assay: Blood oxygen and carbon dioxide partial pressure; assay type: in vivo; settings: 20 mg/kg, i.p.; blood from abdominal aorta 60 minutes after administration
Protocol: In this experiment, 4-week-old male mice of ddY line (10 individuals per one group) were used after fasting treatment for 24 hours.
After 60 minutes of the administration of each compound of the present invention, each mouse was subjected to ventrotomy under anesthesia with Nembutal® (Dainabot Co., Ltd.; 50 mg/kg, i.p.) to collect blood from abdominal aorta, and the collected blood sample was immediately checked for its oxygen partial pressure (PO₂) and carbon dioxide partial pressure (PCO₂) using a blood-aerotonometer (Model 170, Ciba-Corning).

[3] = test system: rats of diabetes mellitus; assay: Blood sugar level in streptozotocin-induced diabetes mellitus; assay type: in vivo, male rats of Wistar line; settings: 50 mg/kg
Protocol: In this experiment, 8-week-old male rats of Wistar line (5 individuals per one group) were used after rearing them for 1 week with normal feed. Streptozotocin (40 mg/kg) was administered by tail intravenous injection to obtain rats of diabetes mellitus. Beginning after 1 week of the streptozotocin administration, oral administration of each test drug has been carried out for 1 week, followed by 24 hours of fasting. Thereafter, blood sample was collected from lower abdominal vena cava under anesthesia with Nembutal® (1 ml/kg, i.p.). Serum samples were prepared from the thus collected blood samples and checked for their blood sugar levels, with the results shown in Table 9.

male rats of SHR line = assay: Blood pressure in SHR rats; assay type: in vivo; settings: 10 mg/kg, p.o., 2 weeks
Protocol: In this experiment, 12-week-old male rats of SHR line (5 to 6 individuals per one group) were used after rearing them for 1 week with normal feed. Oral administration of each test drug has been carried out for 2 weeks and then blood pressure (mmHg) was measured using a small animal hemomanometer (UR-1000).

[4] = Blood plasma clotting time after oral administration; assay type: in vivo, male rats of Wistar line; settings: 30 mg/kg, p.o.; blood collected 90 minutes after administration; calcium chloride, 37°C
Protocol: In this experiment, 9-week-old male rats of Wistar line (5 to 6 individuals per one group) were used after rearing them for 1 week with normal feed. After 24 hours of fasting, each test drug was administered orally and, 90 minutes thereafter, blood sample was collected from lower abdominal vena cava of each rat under anesthesia with Nembutal® (1 ml/kg, i.p.). Blood samples obtained in this way were checked for their blood clotting time and erythrocyte deformability.
Measuring procedures are as follows.
Blood clotting time ... Collected blood sample is centrifuged at 3,500 rpm for 10 minutes to obtain blood plasma. The blood plasma is pre-incubated for 1 minute in a water bath controlled at 37°C, mixed with calcium chloride and then shaken at 20 second intervals to measure a time required for its clotting.

[5] = i.o., administered for 1 week beginning 1 week after streptozotocin (40 mg/kg), serum

SMILES | Lethality (%) (male mice of ddY line [1]) | Survival Time ±S.E. (male mice of ddY line [1]) | Carbon Dioxide Partial Pressure (male mice of ddY line [2]) | Oxygen Partial Pressure (male mice of ddY line [2]) | Blood Sugar Level ± S.E. ([3]; 168 h) | Blood Pressure ±S.E. Average (male rats of SHR line) | Blood Pressure ±S.E. Maximum (male rats of SHR line) | Plasma Clotting Time ± S.E. [4] | Blood Sugar Level ± S.E. [3, 5]
CC(CCC1OCC1CO)C1CCC2C3C(O)CC4CC(O)CCC4(C)C3CC(O)C12C [Example 3, (24R)-(25S)-(+)-24,26-epoxy-5β-cholestane-3α,7α,12α,27-tetrol] | 80% | 107.3 ± 8.6 s | 45.5 mmHg | 86.1 mmHg | 143 ± 6.9 mg/dL | 150 ± 3.7 mmHg | 200 ± 7.7 mmHg | 195 ± 1.9 s | –
C[C@H](CCCC(CO)CO)[C@H]1CC[C@H]2[C@@H]3[C@H](O)C[C@@H]4C[C@H](O)CC[C@]4(C)[C@H]3C[C@H](O)[C@]12C [Example 6, 3α,7α,12α,26,27-pentahydroxy-5β-cholestane] | 80% | 98.7 ± 8.81 s | 40.3 mmHg | 83.5 mmHg | – | 131 ± 3.7 mmHg | 178 ± 3.3 mmHg | – | 138 ± 6.8 mg/dL
C[C@H](CCCC(CO)CO)[C@H]1CC[C@H]2[C@@H]3[C@H](O)C[C@H]4C[C@H](O)CC[C@]4(C)[C@H]3C[C@H](O)[C@]12C [Example 7, 3α,7α,12α,26,27-pentahydroxy-5α-cholestane] | 80% | 89 ± 9.99 s | 41.1 mmHg | 81.1 mmHg | – | 155 ± 3.6 mmHg | 198 ± 3.7 mmHg | – | 161 ± 5.5 mg/dL
C[C@H](CC[C@H](O)C(CO)CO)[C@H]1CC[C@H]2[C@@H]3[C@H](O)C[C@@H]4C[C@H](O)CC[C@]4(C)[C@H]3C[C@H](O)[C@]12C [Example 8, (24S)-3α,7α,12α,24,26,27-hexahydroxy-5β-cholestane] | 70% | 123.0 ± 7.19 s | 42.1 mmHg | 98.7 mmHg | – | 151 ± 9.5 mmHg | 180 ± 6.6 mmHg | – | 112 ± 8.4 mg/dL
C[C@H](CC[C@H](O)[C@@H](C)CO)[C@H]1CC[C@H]2[C@@H]3[C@H](O)C[C@@H]4C[C@H](O)CC[C@]4(C)[C@H]3C[C@H](O)[C@]12C [Example 9, (24S)-(25S)-3α,7α,12α,24,26-pentahydroxy-5β-cholestane] | 80% | 101.2 ± 10.1 s | 43.3 mmHg | 88.1 mmHg | – | 150 ± 8.9 mmHg | 199 ± 5.4 mmHg | – | 125 ± 6.6 mg/dL
C[C@H](CC[C@H](O)[C@H](C)CO)[C@H]1CC[C@H]2[C@@H]3[C@H](O)C[C@@H]4C[C@H](O)CC[C@]4(C)[C@H]3C[C@H](O)[C@]12C [Example 10, (24S)-(25R) 3α,7α,12α,24,26-pentahydroxy-5β-cholestane] | 80% | 111.1 ± 9.11 s | 42.6 mmHg | 87.5 mmHg | – | 155 ± 9.5 mmHg | 191 ± 7.2 mmHg | – | 133 ± 3.8 mg/dL
C[C@H](CC[C@@H](O)[C@@H](C)CO)[C@H]1CC[C@H]2[C@@H]3[C@H](O)C[C@@H]4C[C@H](O)CC[C@]4(C)[C@H]3C[C@H](O)[C@]12C [Example 11, (24R)-(25S)-3α,7α,12α,24,26-pentahydroxy-5β-cholestane] | 80% | 103.0 ± 7.56 s | 40.5 mmHg | 86.1 mmHg | – | 141 ± 9.1 mmHg | 188 ± 3.8 mmHg | – | 187 ± 2.5 mg/dL
C[C@H](CO)[C@H](O)CC[C@@H](C)[C@H]1CC[C@H]2[C@@H]3[C@H](O)C[C@@H]4C[C@H](O)CC[C@]4(C)[C@H]3C[C@H](O)[C@]12C [Example 12, (24R)-(25R)-3α,7α,12α,24,26-pentahydroxy-5β-cholestane] | 90% | 121.3 ± 3.21 s | 41.1 mmHg | 87.1 mmHg | – | 138 ± 9.5 mmHg | 173 ± 3.6 mmHg | – | 163 ± 3.8 mg/dL
C[C@H](CC[C@@H](O)C(CO)CO)[C@H]1CC[C@H]2[C@@H]3[C@H](O)C[C@@H]4C[C@H](O)CC[C@]4(C)[C@H]3C[C@H](O)[C@]12C [Illustrative Example 1, (24R)-(+)-3α,7α,12α,24,26,27-hexahydroxy-5β-cholestane] | 70% | 159 ± 10.72 s | 41.3 mmHg | 98.6 mmHg | – | 139 ± 8.5 mmHg | 205 ± 2.1 mmHg | – | 177 ± 5.5 mg/dL
C[C@H](CC[C@@H](O)CCO)[C@H]1CC[C@H]2[C@@H]3[C@H](O)C[C@@H]4C[C@H](O)CC[C@]4(C)[C@H]3C[C@H](O)[C@]12C [Illustrative Example 2, 27-nor-(24R)-(+)-3α,7α,12α,24,26-pentahydroxy-5β-cholestane] | 80% | 95.3 ± 11.12 s | 42.1 mmHg | 85.4 mmHg | – | 145 ± 8.1 mmHg | 200 ± 3.5 mmHg | 201 ± 4.1 s | 171 ± 4.7 mg/dL
C[C@H](CCCC(C)(O)CO)[C@H]1CC[C@H]2[C@@H]3[C@H](O)C[C@@H]4C[C@H](O)CC[C@]4(C)[C@H]3C[C@H](O)[C@]12C (stereo partly drawn) [Illustrative Example 4, 5β-cholestane-3α,7α,12α,25,26-pentol] | 70% | 119.0 ± 7.12 s | 40.5 mmHg | 91.9 mmHg | – | 144 ± 4.4 mmHg | 181 ± 2.5 mmHg | – | 133 ± 5.4 mg/dL
CC(C)C(O)CC[C@@H](C)[C@H]1CC[C@H]2[C@@H]3[C@H](O)C[C@@H]4C[C@H](O)CC[C@]4(C)[C@H]3C[C@H](O)[C@]12C (stereo partly drawn) [Illustrative Example 5, 3α,7α,12α,24-tetrahydroxy-5β-cholestane] | 80% | 101.1 ± 7.8 s | 41.2 mmHg | 88.1 mmHg | – | 151 ± 4.6 mmHg | 185 ± 7.7 mmHg | – | 170 ± 7.2 mg/dL
C[C@H](CCCO)[C@H]1CC[C@H]2[C@@H]3[C@H](O)C[C@@H]4C[C@H](O)CC[C@]4(C)[C@H]3C[C@H](O)[C@]12C [Illustrative Example 6, 3α,7α,12α,24-tetrahydroxy-5β-cholan] | 80% | 105.3 ± 6.84 s | 40.1 mmHg | 89.6 mmHg | – | 148 ± 8.4 mmHg | 187 ± 6.3 mmHg | – | 159 ± 5.7 mg/dL
